Experimental data: ChEMBL document CHEMBL1201862, “PubChem BioAssay data set” (2004)
Activity calls are given as the source filed them.

How the values were obtained:
cells [1] = assay type: functional, cell-based
[2] = biological target: T1, Trace amine-associated receptor 1 (Homo sapiens, UniProt Q96RJ0); test: Counterscreen for agonists of the human trace amine associated receptor 1 (hTAAR1): Fluorescence-based cell-based high throughput dose response assay to identify hTAAR1 agonist that also desensitize TAAR1 receptor response.; assay type: functional
T1 sequence (Q96RJ0 whole entry): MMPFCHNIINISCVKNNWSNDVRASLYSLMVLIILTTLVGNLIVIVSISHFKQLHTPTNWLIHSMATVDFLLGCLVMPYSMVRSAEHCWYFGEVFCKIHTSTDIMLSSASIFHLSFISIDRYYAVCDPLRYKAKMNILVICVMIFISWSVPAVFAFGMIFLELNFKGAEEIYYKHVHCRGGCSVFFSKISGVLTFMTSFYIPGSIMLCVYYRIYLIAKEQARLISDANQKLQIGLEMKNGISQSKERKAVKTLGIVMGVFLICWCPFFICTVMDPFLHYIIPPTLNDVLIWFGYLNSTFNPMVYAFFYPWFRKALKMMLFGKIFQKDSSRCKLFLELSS

cells [3] = assay type: functional, cell-based; remark: listed apart in the source
Estrogen receptor beta [4] = biological target: T2, Estrogen receptor beta (Homo sapiens, UniProt Q92731); test: ERβ–SRC-3 coactivator interaction inhibitors, confirmation, orthogonal assay, biochemical, ELISA, streptavidin-HRP readout (AID 1060)
T2 sequence (Q92731 whole entry): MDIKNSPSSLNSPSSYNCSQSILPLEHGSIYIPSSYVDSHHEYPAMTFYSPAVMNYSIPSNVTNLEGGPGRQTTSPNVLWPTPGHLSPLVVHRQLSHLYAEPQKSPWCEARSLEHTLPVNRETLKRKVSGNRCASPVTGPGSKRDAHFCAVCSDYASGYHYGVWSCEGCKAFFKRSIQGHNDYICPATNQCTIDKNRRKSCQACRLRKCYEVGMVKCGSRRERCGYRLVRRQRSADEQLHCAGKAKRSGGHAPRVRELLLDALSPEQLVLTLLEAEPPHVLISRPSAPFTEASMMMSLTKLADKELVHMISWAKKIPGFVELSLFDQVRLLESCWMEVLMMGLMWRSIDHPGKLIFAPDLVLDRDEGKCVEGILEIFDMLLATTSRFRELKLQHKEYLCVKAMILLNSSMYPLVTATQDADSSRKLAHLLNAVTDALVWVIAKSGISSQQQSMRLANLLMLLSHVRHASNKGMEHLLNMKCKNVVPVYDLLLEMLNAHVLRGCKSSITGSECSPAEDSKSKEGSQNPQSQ

[5] = biological target: T1, Trace amine-associated receptor 1; test: Fluorescence-based cell-based high throughput dose response assay to identify agonists of the human trace amine associated receptor 1 (TAAR1).; assay type: functional
[6] = growth suppression of PTEN-null colon cells, dose response, cell-based, HCT116 PTEN knockout (AID 1047); assay type: functional;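 also: HCT116 colon tumor cells with PTEN knocked out; cells exposed to compound for 60 hours before readout; potency for loss of cell viability measured by luminescence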
Estrogen receptor = biological target: T3, Estrogen receptor (Homo sapiens, UniProt P03372);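 also: potency for inhibiting coactivator peptide recruitment to the receptor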
T3 sequence (P03372 whole entry): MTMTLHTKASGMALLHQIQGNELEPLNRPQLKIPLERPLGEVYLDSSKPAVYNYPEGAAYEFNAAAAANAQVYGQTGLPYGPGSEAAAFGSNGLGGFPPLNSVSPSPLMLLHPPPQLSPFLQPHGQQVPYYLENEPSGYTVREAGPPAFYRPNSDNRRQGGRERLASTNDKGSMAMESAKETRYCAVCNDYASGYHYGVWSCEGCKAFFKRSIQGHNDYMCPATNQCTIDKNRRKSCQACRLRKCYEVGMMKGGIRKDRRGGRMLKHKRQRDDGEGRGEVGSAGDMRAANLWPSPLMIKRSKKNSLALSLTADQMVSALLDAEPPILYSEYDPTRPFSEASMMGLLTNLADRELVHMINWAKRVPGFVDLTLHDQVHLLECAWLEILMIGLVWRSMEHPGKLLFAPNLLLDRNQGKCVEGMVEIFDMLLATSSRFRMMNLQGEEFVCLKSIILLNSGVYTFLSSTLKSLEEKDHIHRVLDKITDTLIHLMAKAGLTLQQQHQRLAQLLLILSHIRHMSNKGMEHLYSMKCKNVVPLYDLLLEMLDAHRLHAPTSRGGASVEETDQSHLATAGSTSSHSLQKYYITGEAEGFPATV

Estrogen receptor beta [7] = biological target: T2, Estrogen receptor beta
[8] = growth suppression of beta-catenin-knockout colon cells, dose response, cell-based, HCT116, human colon tumor (AID 1045); assay type: functional;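 also: HCT116 colon tumor cells with beta catenin knocked out; cells exposed to compound for 60 hours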
[9] = A cytotoxicity screen of small molecule inhibitors of the PhoP region in Salmonella typhi identified in the primary screen. [Related pubchem assays: 1850, 1864, 1985 ]; assay type: functional
[10] = biological target: T4, Tyrosine-protein phosphatase non-receptor type 7 (Homo sapiens, UniProt P35236); test: inhibitors of human HePTP phosphatase, […], biochemical, absorbance, leukemia target (AID 521); assay type: functional
T4 sequence (P35236 whole entry): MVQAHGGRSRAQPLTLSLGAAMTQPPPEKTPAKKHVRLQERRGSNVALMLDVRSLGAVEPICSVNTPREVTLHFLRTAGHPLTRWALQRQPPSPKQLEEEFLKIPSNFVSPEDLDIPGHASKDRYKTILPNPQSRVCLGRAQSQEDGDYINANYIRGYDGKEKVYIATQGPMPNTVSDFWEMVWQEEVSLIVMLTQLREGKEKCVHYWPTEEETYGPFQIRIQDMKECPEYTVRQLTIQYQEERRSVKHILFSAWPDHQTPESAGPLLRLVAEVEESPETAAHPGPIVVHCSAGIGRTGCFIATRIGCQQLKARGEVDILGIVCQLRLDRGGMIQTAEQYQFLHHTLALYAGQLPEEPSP

Leucine aminopeptidase = biological target: T5, Leucine aminopeptidase (Plasmodium falciparum 3D7, UniProt Q8IL11); test: P. falciparum M17LAP inhibitors, primary screen, biochemical, fluorogenic H-Leu-NHMec substrate, 1536-well (AID 1619); assay type: functional
T5 sequence (Q8IL11 whole entry): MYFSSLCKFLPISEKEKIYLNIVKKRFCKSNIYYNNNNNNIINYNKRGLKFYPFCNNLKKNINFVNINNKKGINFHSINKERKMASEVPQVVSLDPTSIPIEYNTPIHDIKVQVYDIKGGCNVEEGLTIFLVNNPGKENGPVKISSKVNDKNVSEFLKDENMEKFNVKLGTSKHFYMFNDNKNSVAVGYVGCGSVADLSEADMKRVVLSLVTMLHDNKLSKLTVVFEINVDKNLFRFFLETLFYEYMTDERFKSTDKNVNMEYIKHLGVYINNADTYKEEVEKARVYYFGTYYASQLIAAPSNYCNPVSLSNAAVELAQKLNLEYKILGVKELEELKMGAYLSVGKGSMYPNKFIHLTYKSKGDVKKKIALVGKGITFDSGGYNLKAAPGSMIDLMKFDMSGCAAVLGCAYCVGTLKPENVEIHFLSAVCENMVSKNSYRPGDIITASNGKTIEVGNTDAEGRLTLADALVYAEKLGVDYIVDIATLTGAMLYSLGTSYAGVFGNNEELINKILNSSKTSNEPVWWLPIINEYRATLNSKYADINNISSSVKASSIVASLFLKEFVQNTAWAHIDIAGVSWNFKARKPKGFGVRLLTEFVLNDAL

Aminopeptidase N = biological target: T6, Aminopeptidase N (Plasmodium falciparum FcB1/Columbia, UniProt O96935); test: P. falciparum M1AAP inhibitors, biochemical, fluorogenic H-Leu-NHMec substrate, 1536-well (AID 1445); design: species or system Plasmodium falciparum 3D7, 3D7
T6 sequence (O96935 whole entry): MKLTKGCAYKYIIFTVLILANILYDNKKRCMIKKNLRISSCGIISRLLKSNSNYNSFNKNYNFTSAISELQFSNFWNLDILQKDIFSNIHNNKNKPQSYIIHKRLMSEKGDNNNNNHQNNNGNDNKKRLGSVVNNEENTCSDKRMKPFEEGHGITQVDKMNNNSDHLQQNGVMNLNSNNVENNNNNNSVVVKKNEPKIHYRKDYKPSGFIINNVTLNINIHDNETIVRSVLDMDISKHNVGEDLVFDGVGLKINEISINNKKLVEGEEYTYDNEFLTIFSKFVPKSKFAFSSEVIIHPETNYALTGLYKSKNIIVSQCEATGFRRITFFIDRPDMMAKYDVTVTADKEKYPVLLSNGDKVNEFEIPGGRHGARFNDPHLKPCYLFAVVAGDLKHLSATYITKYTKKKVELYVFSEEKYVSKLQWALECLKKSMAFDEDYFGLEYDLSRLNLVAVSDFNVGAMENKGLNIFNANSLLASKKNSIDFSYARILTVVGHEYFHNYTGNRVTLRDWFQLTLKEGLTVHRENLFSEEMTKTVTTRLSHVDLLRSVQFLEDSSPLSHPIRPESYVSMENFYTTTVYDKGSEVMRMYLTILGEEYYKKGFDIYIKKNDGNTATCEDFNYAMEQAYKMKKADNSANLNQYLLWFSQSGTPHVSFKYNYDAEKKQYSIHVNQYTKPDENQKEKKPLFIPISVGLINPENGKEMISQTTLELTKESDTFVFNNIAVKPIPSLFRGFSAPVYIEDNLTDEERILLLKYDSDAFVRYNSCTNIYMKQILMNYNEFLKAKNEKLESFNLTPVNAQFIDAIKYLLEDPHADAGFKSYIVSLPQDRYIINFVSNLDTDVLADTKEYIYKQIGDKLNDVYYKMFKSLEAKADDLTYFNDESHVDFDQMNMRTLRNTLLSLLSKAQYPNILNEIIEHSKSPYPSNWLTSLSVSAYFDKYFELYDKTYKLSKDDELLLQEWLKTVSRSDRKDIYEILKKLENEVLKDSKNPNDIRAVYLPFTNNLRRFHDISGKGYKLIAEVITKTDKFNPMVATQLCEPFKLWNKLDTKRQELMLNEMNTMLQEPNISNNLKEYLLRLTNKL

[11] = biological target: T7, Short transient receptor potential channel 4 (Mus musculus, UniProt Q9QUQ5); test: mouse TRPC4 channel inhibitors, dose response, cell-based, HEK293 TRPC4/mu-opioid, Fluo-4 calcium (AID 434942); assay type: functional;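 also: potency of inhibitors blocking the TRPC4 calcium response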
T7 sequence (Q9QUQ5 whole entry): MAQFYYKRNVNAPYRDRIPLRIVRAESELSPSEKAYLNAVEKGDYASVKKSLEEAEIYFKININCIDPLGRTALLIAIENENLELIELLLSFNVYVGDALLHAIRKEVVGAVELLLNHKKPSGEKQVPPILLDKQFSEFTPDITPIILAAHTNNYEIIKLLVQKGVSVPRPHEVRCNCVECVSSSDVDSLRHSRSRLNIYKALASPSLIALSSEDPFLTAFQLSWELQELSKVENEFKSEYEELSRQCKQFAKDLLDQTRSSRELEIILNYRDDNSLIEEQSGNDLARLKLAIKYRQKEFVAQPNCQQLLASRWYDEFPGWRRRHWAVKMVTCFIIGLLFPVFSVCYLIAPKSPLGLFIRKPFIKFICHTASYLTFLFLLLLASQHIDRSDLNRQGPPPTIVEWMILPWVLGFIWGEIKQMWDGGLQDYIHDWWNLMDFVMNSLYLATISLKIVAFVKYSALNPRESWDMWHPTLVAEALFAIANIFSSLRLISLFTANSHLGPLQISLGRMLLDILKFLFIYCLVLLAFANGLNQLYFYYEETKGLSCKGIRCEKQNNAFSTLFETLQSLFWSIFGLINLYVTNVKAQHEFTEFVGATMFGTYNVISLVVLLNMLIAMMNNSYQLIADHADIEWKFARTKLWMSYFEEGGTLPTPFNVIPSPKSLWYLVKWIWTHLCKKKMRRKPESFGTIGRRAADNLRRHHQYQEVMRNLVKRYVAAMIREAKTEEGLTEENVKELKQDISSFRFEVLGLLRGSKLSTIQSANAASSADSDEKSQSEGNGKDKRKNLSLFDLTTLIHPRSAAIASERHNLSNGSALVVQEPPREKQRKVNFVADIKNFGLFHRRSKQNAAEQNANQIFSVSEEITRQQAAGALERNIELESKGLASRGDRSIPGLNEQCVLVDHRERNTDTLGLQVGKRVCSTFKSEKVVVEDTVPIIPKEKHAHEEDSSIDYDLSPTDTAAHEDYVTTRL

[12] = biological target: T8, Mannose-6-phosphate isomerase (Homo sapiens, UniProt P34949); test: human PMI inhibitors, high substrate, primary screen, biochemical, fluorescence intensity, high mannose 6-phosphate (AID 1220)
T8 sequence (P34949 whole entry): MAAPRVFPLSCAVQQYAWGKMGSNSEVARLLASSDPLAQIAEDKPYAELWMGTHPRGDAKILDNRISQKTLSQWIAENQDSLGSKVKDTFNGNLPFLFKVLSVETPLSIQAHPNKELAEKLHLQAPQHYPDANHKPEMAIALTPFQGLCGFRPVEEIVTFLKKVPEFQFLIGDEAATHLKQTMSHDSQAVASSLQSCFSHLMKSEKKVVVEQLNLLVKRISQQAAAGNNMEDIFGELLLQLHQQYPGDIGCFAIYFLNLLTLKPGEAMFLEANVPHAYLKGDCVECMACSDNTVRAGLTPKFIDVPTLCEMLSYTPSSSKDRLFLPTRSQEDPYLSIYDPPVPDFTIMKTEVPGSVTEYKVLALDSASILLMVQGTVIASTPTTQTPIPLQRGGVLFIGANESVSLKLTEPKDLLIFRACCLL

[13] = biological target: Eukaryotic translation initiation factor 4E (Mus musculus, UniProt P63073); test: eIF4E–eIF4G protein interaction inhibitors, dose response, biochemical, TR-FRET (AID 855); assay type: functional;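 also: potency for disrupting eIF4E binding to eIF4GI seen as loss of FRET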
Sequence of Eukaryotic translation initiation factor 4E (P63073 whole entry): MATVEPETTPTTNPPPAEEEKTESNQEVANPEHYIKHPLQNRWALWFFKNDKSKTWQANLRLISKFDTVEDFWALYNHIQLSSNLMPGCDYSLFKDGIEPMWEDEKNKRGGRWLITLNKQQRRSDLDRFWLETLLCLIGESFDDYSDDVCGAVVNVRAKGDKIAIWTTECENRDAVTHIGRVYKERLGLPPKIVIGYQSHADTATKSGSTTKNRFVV

[14] = biological target: Induced myeloid leukemia cell differentiation protein Mcl-1 (Homo sapiens, UniProt Q07820); assay type: functional
Sequence of Induced myeloid leukemia cell differentiation protein Mcl-1 (Q07820 whole entry): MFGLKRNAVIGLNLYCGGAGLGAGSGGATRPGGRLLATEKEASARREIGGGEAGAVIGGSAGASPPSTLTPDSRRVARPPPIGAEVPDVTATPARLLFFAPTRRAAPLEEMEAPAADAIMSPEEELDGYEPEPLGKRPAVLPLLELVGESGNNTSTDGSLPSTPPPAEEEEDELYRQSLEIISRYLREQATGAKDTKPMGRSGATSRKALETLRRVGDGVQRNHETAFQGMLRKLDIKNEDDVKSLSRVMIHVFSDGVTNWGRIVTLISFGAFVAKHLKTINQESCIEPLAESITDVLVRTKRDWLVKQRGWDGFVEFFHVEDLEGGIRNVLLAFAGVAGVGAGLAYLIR

CN1CCN(c2ccc(NC(=O)c3cccc(OCc4ccccc4)c3)cc2)CC1
EC50 (cells [1]): > 29.9 µM (inactive) | IC50 [2]: 9.06 µM (active) | IC50 (cells [3]): > 29.9 µM (inactive) | IC50 (Estrogen receptor beta [4]): 0.0793 µM (not active) | EC50 [5]: 9.36 µM (active)

CCOc1cccc2cc(-c3cn4cc(C)ccc4n3)c(=O)oc12
EC50 [6]: 1.33 µM (active) | IC50 (Estrogen receptor): 3.82 µM (active) | IC50 (Estrogen receptor beta [4]): > 50 µM (not active) | IC50 (Estrogen receptor beta [7]): > 50 µM (not active) | EC50 [8]: 2.46 µM (active)

O=C(c1ccco1)N1CCCN(Cc2nc(-c3ccc4c(c3)OCO4)no2)CC1
EC50 [9]: > 50 µM (active)

CCN1CCCC1Cn1cnc2c3cc(Cl)ccc3nc-2c1O (stereo not drawn)
EC50 [9]: > 50 µM (active)

Cn1nnnc1SCC1=C(C(=O)O)N2C(=O)[C@@H](NC(=O)[C@H](O)c3ccccc3)[C@H]2SC1 [CEFAMANDOLE SODIUM]
IC50 [10]: 0.1 µM (active) | IC50 (Leucine aminopeptidase): 12.1 µM (active)

CC(C)OC(=O)c1cccc(C(=O)Oc2ccc(Br)cc2)n1
EC50 [9]: > 50 µM (active)

O=C(Cc1ccc(S(=O)(=O)N2CCOCC2)s1)NCCC(c1ccccc1)c1ccccc1
IC50 (Aminopeptidase N): 2.76 µM (active)

CC(C)CCNC(=O)c1cc2c(s1)-c1ccccc1S(=O)(=O)C2
EC50 [9]: > 50 µM (active)

Cn1c(=O)c2c(nc(SCc3cccnc3)n2Cc2ccc(F)cc2)n(C)c1=O
IC50 [10]: > 100 µM (not active) | EC50 [11]: 0.944 µM (active)

OCCN1CCN(C(c2cccs2)c2ccc3cccnc3c2O)CC1 (stereo not drawn)
IC50 [12]: > 50 µM (not active) | IC50 (Estrogen receptor beta [4]): 2.82 µM (active) | IC50 [13]: > 64 µM (inactive)

CCc1cc(C(=O)N=Nc2c(O)[nH]c3ccc([N+](=O)[O-])cc23)c2ccccc2n1
IC50 [14]: 6.88 µM (active)
